Measurements reported in US20200331950A1, “SGLTS INHIBITOR AND APPLICATION THEREOF” (SHANDONG DANHONG PHARMACEUTICAL CO., LTD., priority 2018, published 2020).
pIC50: −log10 of the molar value.

Legend:
[1] = molecular target: T1, Human-SGLT1 (Homo sapiens, UniProt P13866); assay: SGLT1 glucose transport test ([14C]-labeled methyl a-D-glucopyranoside uptake); type: cell-based; settings: cells stably expressing Human-SGLT1; 37° C., 2 hours
T1 sequence (P13866 1-664): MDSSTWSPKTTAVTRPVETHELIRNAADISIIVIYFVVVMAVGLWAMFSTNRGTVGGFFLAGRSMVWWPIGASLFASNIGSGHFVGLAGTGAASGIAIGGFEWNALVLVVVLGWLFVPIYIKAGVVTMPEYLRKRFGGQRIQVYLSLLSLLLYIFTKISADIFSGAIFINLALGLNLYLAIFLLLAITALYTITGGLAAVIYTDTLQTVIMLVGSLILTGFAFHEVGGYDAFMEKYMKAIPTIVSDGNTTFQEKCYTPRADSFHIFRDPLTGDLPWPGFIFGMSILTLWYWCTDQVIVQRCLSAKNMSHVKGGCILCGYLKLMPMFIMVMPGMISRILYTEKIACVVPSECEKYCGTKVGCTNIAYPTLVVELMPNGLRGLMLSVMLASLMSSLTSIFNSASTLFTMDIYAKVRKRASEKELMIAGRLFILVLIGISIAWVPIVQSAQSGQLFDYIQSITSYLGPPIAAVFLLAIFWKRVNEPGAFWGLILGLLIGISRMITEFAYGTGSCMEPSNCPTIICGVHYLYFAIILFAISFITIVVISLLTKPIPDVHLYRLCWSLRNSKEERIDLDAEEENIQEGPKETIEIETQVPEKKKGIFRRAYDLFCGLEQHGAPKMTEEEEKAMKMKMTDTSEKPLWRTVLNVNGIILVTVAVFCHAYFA
From the text: Biological Activity Experiment 1: SGLT1 Glucose Transport Test.
1. Purpose of the Experiment:
The effect of the compound on the glucose transport activity of SGLT1 transporter was detected by measuring the amount of [′C]-labeled glucose entering cells with high expression of Human-SGLT1.
The cells stably expressing Human-SGLT1 were constructed by Wuxi AppTec(Shanghai) Co., Ltd. SGLT1 cells were laid in Cytostar-T (PerkinElmer) 96-well cell culture plate and cultured overnight in 5% CO2 environment at 37° C.
2.2. SGLT1 Glucose Transport Test.
1) Experimental buffer, including: 10 mM 4-hydroxyethylpiperazineethanesulfonic acid (HEPES), 1.2 mM magnesium chloride (MgCl2), 4.7 mM potassium chloride (KCl), 2.2 mM calcium chloride (CaCl2) and 120 mM sodium chloride (NaCl).
2) Compounds were serially diluted in 100% dimethyl sulfoxide (DMSO) starting at 1 mM and make a 5-folds, 8 points serials compound dilutions.
3) 3 μM [′^4C]-labeled methyl a-D-glucopyranoside was prepared with the experimental buffer.
4) The cells were treated with 49 uL of the experimental buffer, 1 μL of the gradient diluted compound and 50 μL of the 3 μM [^14C]-labeled methyl a-D-lucopyranosid solution at 37° C. for 2 hours.
5) The data were read with an isotope detector Micro beta Reader.
6) The IC50 value of the tested compound was obtained by the calculation formula: log(inhibitor) vs. response—Variable slope, using GraphPad Prism 5.0 software.

[2] = In vivo pharmacokinetics in rats; settings: male SD rats; for Oral DNAUC (AUCPO/Dose) / bioavailability: oral 2 mg/kg; for clearance / half-life / Vd / bioavailability / Cmax: rat, plasma; for clearance / half-life / Vd / Cmax: intravenous 1 mg/kg or oral 2 mg/kg; for clearance: read-out: Cl (clearance rate); for half-life: read-out: T1/2 (half-life) (converted); for Vd: read-out: Vdss (distribution volume); for bioavailability: intravenous 1 mg/kg, read-out: F % (oral bioavailability); for Cmax: single administration
From the text: Study on the In Vivo Pharmacokinetics in Rats
The purpose of the experiment: Male SD rats were used as test animals and were given a single administration to determine the plasma concentration of the compound and evaluate the pharmacokinetic behavior.
Experimental method: Six healthy adult male SD rats were divided into 2 groups, with 3 rats in an intravenous injection group and 3 rats in an oral administration group. In the intravenous injection group, the test compound was mixed with an appropriate amount of vehicle (10% N-methyl pyrrolidone (NMP)/10% polyethylene glycol-15 hydroxystearate (available from solutol)/80% water), then vortexed and sonicated to prepare 0.2 mg/mL clear solution, which was filtered by microporous membrane. In the oral administration group, 10% N-methyl pyrrolidone (NMP)/10% polyethylene glycol-15 hydroxy stearate (available from solutol)/80% water was used as a vehicle and mixed with the test compound, then vortexed and sonicated to prepare 0.40 mg/mL clear solution. The rats were given intravenous administration at a dose of 1 mg/kg or oral administration at a dose of 2 mg/kg. Whole blood was collected at a certain period of time to prepare the plasma. The drug concentration of the plasma was analyzed by LC-MS/MS method, and the pharmacokinetic parameters were calculated using Phoenix WinNonlin software (Pharsight Company, USA).

Row | Structure (SMILES) | pIC50 [1] | Oral DNAUC (AUCPO/Dose) [2] [nM · h/mpk] | clearance [2] [mL/min/kg] | half-life [2] [h] | Vd [2] [L/kg] | bioavailability [2] [%] | Cmax [2] [nM]
1 | CS[C@H]1OC(c2ccc(Cl)c(Cc3ccc(C4=CCC(F)(F)CC4)cc3)c2)[C@H](O)[C@@H](O)[C@@H]1O (stereo partly drawn) [WXD001] | 6.68 | 1823 | 10.1 | 4.59 | 3.86 | 59 | 410
2 | CS[C@H]1O[C@@H](c2ccc(C)c(Cc3ccc(C4=CCC(F)(F)CC4)cc3)c2)[C@H](O)[C@@H](O)[C@@H]1O [WXD003] | 7.31 | 1013 | 14.5 | 2.56 | 2.94 | 47.7 | 391
3 | CCc1ccc([C@@H]2O[C@H](SC)[C@@H](O)[C@H](O)[C@H]2O)cc1Cc1ccc(C2=CCC(F)(F)CC2)cc1 [WXD010] | 7.83 | 2320 | 8.06 | 4.5 | 2.48 | 56.4 | 356
